Results published in patent US9593110B2, “Neprilysin inhibitors” (Theravence Biopharma R&D IP, LLC, priority 2014, dated 2017).

What was measured:
[1] = Rat PO cassette assay (oral bioavailability); format: in vivo, Sprague-Dawley rats; conditions: male, Sprague-Dawley, plasma, single oral gavage vs intravenous dose, 0.5 mg/kg
Text: Oral bioavailability, or % F, is a measure of the percentage of a drug in an oral dose that actually reaches the systemic circulation. Compound losses can occur due to incomplete formulation dissolution, incomplete absorption due to compound insolubility or instability along the GI, or metabolism in the gut or across the gut wall. The fraction of the dose which reaches the hepatic portal vein must also then pass through the liver before reaching the systemic circulation. Compound metabolism, or “first-pass extraction,” can occur during this initial passage through the liver, and this is an additional potential source of compound loss. Oral bioavailability is calculated as the dose-normalized ratio of drug exposure after an oral dose to that after an intravenous dose, wherein the entire dose is delivered directly to the systemic circulation.
Each cassette study begins with 10 mM DMSO stock solutions of up to 5 different compounds. Typically, compounds are selected such no two compounds dosed in the same cassette have a molecular weight within 5 Da of each other. This simplifies subsequent bioanalysis. Appropriate volumes of each DMSO stock are added into a volume of vehicle (5% sodium bicarbonate, 5% dextrose in H2O) such that the final concentration of each compound is 0.25 mg/mL. Intravenous dosing solutions are sterile-filtered (0.2 μm) prior to dosing.
Pre-cannulated male Sprague-Dawley rats (3 per cassette per route) between 8 and 10 weeks of age were obtained from Harlan Laboratories (Indianapolis, Ind.). Rats received either a single oral gavage or a single intravenous (via lateral tail vein) dose (2 mL/kg) of the dosing solution. The final dose was 0.5 mg/kg. Serial blood samples were harvested via jugular vein cannula at 3 minutes, 15 minutes, 30 minutes, 1 hours, 2 hours, 4 hours, 6 hours, and 24 hours post-dose. Sampling was performed either manually or using automated blood samplers. Samples were collected into microtainer tubes containing EDTA as the anticoagulant and are processed to plasma by refrigerated centrifugation.
Plasma samples were extracted with 3 volumes of MeCN containing a suitable internal standard. Extracts were reconstituted into 3 volumes of water containing 1% formic acid, and analyzed via HPLC-coupled MS/MS. Plasma concentration-time data were analyzed using the Phoenix software (Pharsight Corp., St. Louis, Mo.) to calculate pharmacokinetic parameters.
Compounds of the invention of particular interest were those having a % F>10%, when tested in this assay.

human NEP = human NEP (Homo sapiens (Human), UniProt P08473); assay: In vitro enzyme inhibition assay at human NEP; conditions: recombinant human NEP, fluorogenic peptide substrate, 37° C.; for Ki: pKi
Sequence of human NEP (P08473 52-750): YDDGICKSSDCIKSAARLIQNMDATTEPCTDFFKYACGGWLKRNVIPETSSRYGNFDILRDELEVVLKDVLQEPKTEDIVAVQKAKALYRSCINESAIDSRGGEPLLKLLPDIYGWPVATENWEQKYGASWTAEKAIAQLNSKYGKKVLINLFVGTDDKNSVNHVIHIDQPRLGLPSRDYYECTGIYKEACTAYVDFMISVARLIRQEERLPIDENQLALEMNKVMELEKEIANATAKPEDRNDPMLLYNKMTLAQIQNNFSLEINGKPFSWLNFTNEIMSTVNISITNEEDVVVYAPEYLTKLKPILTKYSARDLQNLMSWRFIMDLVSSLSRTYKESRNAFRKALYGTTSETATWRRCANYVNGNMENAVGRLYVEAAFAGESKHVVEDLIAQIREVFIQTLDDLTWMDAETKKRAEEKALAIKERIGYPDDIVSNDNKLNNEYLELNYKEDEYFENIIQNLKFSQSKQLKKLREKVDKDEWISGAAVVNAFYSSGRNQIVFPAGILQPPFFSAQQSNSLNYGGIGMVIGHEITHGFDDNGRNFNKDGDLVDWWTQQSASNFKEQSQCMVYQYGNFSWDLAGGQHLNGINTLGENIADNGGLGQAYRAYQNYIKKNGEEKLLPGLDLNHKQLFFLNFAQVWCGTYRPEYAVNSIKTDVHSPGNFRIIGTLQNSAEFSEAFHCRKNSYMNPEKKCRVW

bioavailability [1] [%]	pKi (human NEP)	Structure (SMILES)	Ki (human NEP) [nM]
> 10	≧9.0	CCc1cc(C(=O)N[C@H](Cc2ccc(-c3cc(Cl)ccc3F)cc2)C[C@@H](CN)C(=O)O)on1 [Example 21-1, (2S,4S)-2-Aminomethyl-5-(5′-chloro-2′-fluorobiphenyl-4-yl)-4-[(3-ethylisoxazole-5-carbonyl)amino]pentanoic acid]	–
> 10	≧9.0	COC[C@H](C[C@@H](Cc1ccc(-c2cc(Cl)ccc2F)cc1)NC(=O)c1cocn1)C(=O)O [Example 2-8, (2S,4S)-5-(5′-Chloro-2′-fluorobiphenyl-4-yl)-2-methoxymethyl-4-[(oxazole-4-carbonyl)amino]pentanoic acid]	–
> 10	≧9.0	CCOC[C@H](C[C@@H](Cc1ccc(-c2cc(Cl)ccc2F)cc1)NC(=O)c1c[nH]nn1)C(=O)O [Example 7-1, (2S,4S)-5-(5′-Chloro-2′-fluorobiphenyl-4-yl)-2-ethoxymethyl-4-[(1H-[1,2,3]triazole-4-carbonyl)amino]pentanoic acid]	–
> 10	–	CCc1cc(C(=O)N[C@H](Cc2ccc(-c3cc(Cl)ccc3F)cc2)C[C@@H](NC(=O)OC)C(=O)O)on1 [Example 29, (2R,4R)-5-(5′-Chloro-2′-fluorobiphenyl-4-yl)-4-[(3-ethylisoxazole-5-carbonyl)amino]-2-methoxycarbonylaminopentanoic Acid]	≤ 1
> 10	≧9.0	COC[C@H](C[C@@H](Cc1ccc(-c2cc(Cl)ccc2F)cc1)NC(=O)c1c[nH]nn1)C(=O)O [Example 2-1, (2S,4S)-5-(5′-chloro-2′-fluorobiphenyl-4-yl)-2-methoxymethyl-4-[(1H-[1,2,3]triazole-4-carbonyl)amino]pentanoic acid]	–

Structure (SMILES)	bioavailability [1] [%]	pKi (human NEP)	Ki (human NEP) [nM]
CCOC(=O)[C@H](N)C[C@@H](Cc1ccc(-c2cc(Cl)ccc2F)cc1)NC(=O)c1cc(C(C)=O)n[nH]1 [Example 16-10, (2R,4R)-4-[(5-Acetyl-2H-pyrazole-3-carbonyl)amino]-2-amino-5-(5′-chloro-2′-fluoro-biphenyl-4-yl)pentanoic acid ethyl ester]	> 10	–	10 to 31.6
